The source of these data is US20240360067A1, “DERIVATIVES OF ITACONIC ACID AND THEIR USE AS ANTI-INFLAMMATORY AGENTS” (Sitryx Therapeutics Limited, priority 2021, published 2024).

Each structure is given as a SMILES string.

Series [1] deals with IL-6. Description: THP-1 AlphaLISA IL-6 cytokine assay (PMA-differentiated THP-1, LPS then nigericin). In kind it is cell-based. The conditions noted are these: differentiated THP-1 cells, 30 min pre-incubation, LPS 24 hr, nigericin 1 hour. The method, then: (§1) Measuring Inhibitory Effects on IL-1β, and IL-6 Cytokine Output from THP-1s
(§2) The cytokine inhibition profiles of compounds of formula (I) were determined in a differentiated THP-1 cell assay. All assays were performed in RPMI-1640 growth medium (Gibco), supplemented with 10% fetal bovine serum (FBS; Gibco), 1% penicillin-streptomycin and 1% sodium pyruvate unless specified otherwise. The IL-1β and IL-6 cytokine inhibition assays were each run in a background of differentiated THP-1 cells as described below. All reagents described were from Sigma-Aldrich unless specified otherwise. Compounds were prepared as 10 mM DMSO stocks.
(§3) THP-1 cells were expanded as a suspension up to 80% confluence in appropriate growth medium. Cells were harvested, suspended, and treated with an appropriate concentration of phorbol 12-myristate 13-acetate (PMA) over a 72 hr period (37° C./5% CO2).
(§4) Following 72 hrs of THP-1 cell incubation, cellular medium was removed and replaced with fresh growth media containing 1% of FBS. Working concentrations of compounds were prepared separately in 10% FBS treated growth medium and pre-incubated with the cells for 30 minutes (37° C./5% CO2). Following the 30 minute compound pre-incubation, THP-1s were treated with an appropriate concentration of LPS and the THP-1s were subsequently incubated for a 24 hr period (37° C./5% CO2). An appropriate final concentration of Nigericin was then dispensed into the THP-1 plates and incubated for 1 hour (37° C./5% CO2) before THP-1 supernatants were harvested and collected in separate polypropylene 96-well holding plates.
(§5) Reagents from each of the IL-1β and IL-6 commercial kits (Perkin Elmer) were prepared and run according to the manufacturer's instructions. Subsequently, fluorescence signal detection in a microplate reader was measured (EnVision® Multilabel Reader, Perkin Elmer).
(§6) Percentage inhibition was calculated per cytokine by normalizing the sample data to the high and low controls used within each plate (+/−LPS respectively).
On the technique in general: Bead proximity is the source of the signal in Alpha formats.

Series [2] is described as follows: Hepatocyte stability assay, mouse. In kind it is in vitro ADME. The conditions noted are these: 10 μM compound, 0.5×10^6 cells/mL, 60 min; for half-life at 10 μM: cryo-preserved hepatocytes, read-out: T½. From the text: (§7) Defrosted cryo-preserved hepatocytes (viability >70%) were used to determine the metabolic stability of a compound via calculation of intrinsic clearance (CIint; a measure of the removal of a compound from the liver in the absence of blood flow and cell binding). Clearance data are particularly important for in vitro work as they can be used in combination with in vivo data to predict the half-life and oral bioavailability of a drug.
(§8) The metabolic stability in hepatocytes assay involved a time-dependent reaction using both positive and negative controls. The cells must be pre-incubated at 37° C. then spiked with test compound (and positive control); samples taken at pre-determined time intervals were analysed to monitor the change in concentration of the initial drug compound over 60 minutes. A buffer incubation reaction (with no hepatocytes present) acted as a negative control and two cocktail solutions, containing compounds with known high and low clearance values (verapamil/7-hydroxycoumarin and propranolol/diltiazem), acted as positive controls. • 1. The assay was run with a cell concentration of 0.5×10^6 cells/mL in Leibovitz buffer. • 2. All compounds and controls were run in duplicate. • 3. Compound concentration was 10 μM. • 4. All compounds and controls were incubated with both cells and buffer to show turnover is due to hepatic metabolism. • 5. All wells on the incubation plate had 326.7 μL of either cells or buffer added. • 6. Prior to assay, cell and buffer-only incubation plates were preincubated for 10 mins at 37° C. • 7. The assay was initiated by adding compounds, 3.3 μL of 1 mM in 10% DMSO-90% Buffer; final DMSO concentration is 0.1%. • 8. Samples were taken at regular timepoints (0, 5, 10, 20, 40, 60 min) until 60 mins. • 9. Sample volume was 40 μL and added to 160 μL of crash solvent (acetonitrile with internal standard) and stored on ice. • 10. At the end of the assay, the crash plates were centrifuged at 3500 rpm for 20 mins at 4° C. • 11. 80 μL of clear supernatant was removed and mixed with 80 μL of deionised water before being analysed by LC-MS/MS.
(§9) Raw LC-MS/MS data were exported to, and analysed in, Microsoft Excel for determination of intrinsic clearance. The percentage remaining of a compound was monitored using the peak area of the initial concentration as 100%. Intrinsic clearance and half-life values were calculated using a graph of the natural log of percentage remaining versus the time of reaction in minutes.

Series [3] in a line: Hepatocyte stability assay, human. In kind it is in vitro ADME. The conditions noted are these: 10 μM compound, 0.5×10^6 cells/mL, 60 min; for half-life at 10 μM: cryo-preserved hepatocytes, read-out: T½.
Description: as §7, §8, §9

In series [4] the test system is IL-1β. Description: THP-1 AlphaLISA IL-1β cytokine assay (PMA-differentiated THP-1, LPS then nigericin). In kind it is cell-based. The conditions noted are these: 30 min pre-incubation, LPS 24 hr, nigericin 1 hour. As for the experimental part: as §1, §2, §3, §4, §5, §6
The subject of series [5] is NRF2. Description: NRF2 activation assay (DiscoverX PathHunter NRF2 translocation kit, U2OS cells). In kind it is cell-based. The conditions noted are these: −GSH.
Setting [6] is: Homo sapiens, THP-1, differentiated THP-1 cells.

On to `C=C(CC(=O)NC)C(=O)OC1(c2ccc(C(F)(F)F)cc2)CCC1` [Example 9, 1-(4-(trifluoromethyl)phenyl)cyclobutyl 4-(methylamino)-2-methylene-4-oxobutanoate], for which the IC50 (commonly the point on the concentration scale where inhibition reaches its midpoint) in series [1] (Homo sapiens) is 11.1 µM; in series [4] (setting [6]), 12.6 µM. The CIint in series [2] (Mouse hepatocytes) is 449 μL min^−1 10^−6 cells; in series [3] (Human hepatocytes) it was 27 μL min^−1 10^−6 cells. In addition, the half-life at 10 μM came to 0.05 h in series [2] and 0.733 h in series [3].
As to `C=C(CC(=O)NC(CO)C(N)=O)C(=O)OC1(c2ccc(C(F)(F)F)cc2)CCC1` (stereo not drawn) [Example 17, 1-(4-(trifluoromethyl)phenyl)cyclobutyl 4-((1-amino-3-hydroxy-1-oxopropan-2-yl)amino)-2-methylene-4-oxobutanoate], the figures for the IC50 in series [1] (Homo sapiens) and in series [4] (setting [6]) were 12.4 µM and 15.3 µM, respectively.
Consider `C=C(CC(=O)OCCCCCCCC)C(=O)O` [4-octyl itaconate, reference compound], for which, in series [2] (Mouse hepatocytes), the CIint is listed as 351 μL min^−1 10^−6 cells and the T½ is 4 min. Moreover, in series [3] (Human hepatocytes), the CIint was 401 μL min^−1 10^−6 cells and the T½ is 4 min.
For the molecule `C=C(CC(=O)N(C)C)C(=O)OC1(c2ccc(C(F)(F)F)cc2)CCC1` [Example 10, 1-(4-(trifluoromethyl)phenyl)cyclobutyl 4-(dimethylamino)-2-methylene-4-oxobutanoate], the IC50 was found to be 13.8 µM in series [1] (Homo sapiens) and 60 µM in series [4] (setting [6]). Moreover, the CIint is over 460 μL min^−1 10^−6 cells in series [2] (Mouse hepatocytes) and 98 μL min^−1 10^−6 cells in series [3] (Human hepatocytes). In addition, the half-life at 10 μM in series [2] is under 0.05 h; in series [3], 0.2 h.
As to `C=C(CC(=O)O)C(=O)OC1(c2ccc(C(F)(F)F)c(F)c2)CCC1` [Example 3, 3-((1-(3-fluoro-4-(trifluoromethyl)phenyl)cyclobutoxy)carbonyl)but-3-enoic acid], the values for the 50% inhibitory concentration (IC50) in series [1] (Homo sapiens) and in series [4] (setting [6]) were 53.7 µM and 4.8 µM, respectively. The CIint in series [2] (Mouse hepatocytes) and in series [3] (Human hepatocytes) was under 3 μL min^−1 10^−6 cells in each case. The half-life at 10 μM in series [2] and in series [3] was over 7.67 h in each case.
On to `C=C(CC(=O)O)C(=O)OC1CCCc2cc(C(F)(F)F)ccc21` (single isomer, unassigned) [Example 7, 3-(((6-(trifluoromethyl)-1,2,3,4-tetrahydronaphthalen-1-yl)oxy)carbonyl)but-3-enoic acid], for which the IC50 is 65.6 µM in series [1] (Homo sapiens) and 7.9 µM in series [4] (setting [6]). The CIint in series [2] (Mouse hepatocytes) turned out to be 11 μL min^−1 10^−6 cells; in series [3] (Human hepatocytes), 8 μL min^−1 10^−6 cells. Further, the half-life at 10 μM in series [2] came to 1.97 h; in series [3], 3.65 h.
On to `C=C(CC(=O)NCCN(C)C)C(=O)OC1(c2ccc(C(F)(F)F)cc2)CCC1` [Example 12, 1-(4-(trifluoromethyl)phenyl)cyclobutyl 4-((2-(dimethylamino)ethyl)amino)-2-methylene-4-oxobutanoate], for which the IC50 in series [1] (Homo sapiens) was found to be 4 µM; in series [4] (setting [6]) it was 3.1 µM. In addition, the CIint was 138 μL min^−1 10^−6 cells in series [2] (Mouse hepatocytes) and 59 μL min^−1 10^−6 cells in series [3] (Human hepatocytes). In addition, the half-life at 10 μM in series [2] came out at 0.15 h; in series [3], 0.417 h.
As to `C=C(CC(=O)O)C(=O)OC1(c2ccc(C(F)(F)F)s2)CCC1` [Example 6, 3-((1-(5-(trifluoromethyl)thiophen-2-yl)cyclobutoxy)carbonyl)but-3-enoic acid], the IC50 was over 100 µM in series [1] (Homo sapiens) and 9.5 µM in series [4] (setting [6]). For the same molecule, the CIint in series [2] (Mouse hepatocytes) was under 3 μL min^−1 10^−6 cells; in series [3] (Human hepatocytes), 13 μL min^−1 10^−6 cells. For the same molecule, the figures for the half-life at 10 μM in series [2] and in series [3] were over 7.67 h and 2.38 h, respectively.
In the case of `C=C(CC(=O)OC)C(=O)OC` [dimethyl itaconate, reference compound], the 50% inhibitory concentration (IC50) in series [1] (Homo sapiens) and in series [4] (setting [6]) was over 100 µM in each case.
Regarding `C=C(CC(=O)O)C(=O)OC1(c2ccc(C(F)(F)F)cc2)COC1` [Example 4, 3-(((3-(4-(trifluoromethyl)phenyl)oxetan-3-yl)oxy)carbonyl)but-3-enoic acid], the figures for the 50% inhibitory concentration (IC50) in series [1] (Homo sapiens) and in series [4] (setting [6]) were over 100 µM and 9.2 µM, respectively. The figures for the CIint in series [2] (Mouse hepatocytes) and in series [3] (Human hepatocytes) were 8 μL min^−1 10^−6 cells and 6 μL min^−1 10^−6 cells, respectively. Also, the half-life at 10 μM in series [2] was determined as 3.65 h; in series [3], 5.23 h.
Consider `C=C(CC(=O)NCc1nccn1C)C(=O)OC1(c2ccc(C(F)(F)F)cc2)CCC1` [Example 16, 1-(4-(trifluoromethyl)phenyl)cyclobutyl 4-(((1-methyl-1H-imidazol-2-yl)methyl)amino)-2-methylene-4-oxobutanoate], for which the IC50 in series [1] (Homo sapiens) came to 5.3 µM; in series [4] (setting [6]) it was 5.9 µM. Also, the CIint in series [2] (Mouse hepatocytes) was over 460 μL min^−1 10^−6 cells; in series [3] (Human hepatocytes) it was 114 μL min^−1 10^−6 cells. For the same molecule, the half-life at 10 μM was under 0.05 h in series [2] and 0.183 h in series [3].
With `C=C(CC(=O)O)C(=O)O[C@@H](C)c1ccc(C(F)(F)F)cc1` [Example 1, (S)-3-((1-(4-(trifluoromethyl)phenyl)ethoxy)carbonyl)but-3-enoic acid], the IC50 in series [1] (Homo sapiens) was found to be 54.8 µM; in series [4] (setting [6]) it was 5.4 µM. Moreover, the CIint in series [2] (Mouse hepatocytes) and in series [3] (Human hepatocytes) was under 3 μL min^−1 10^−6 cells in each case. In addition, the half-life at 10 μM in series [2] and in series [3] was over 7.67 h each time.
With `C=C(CC(=O)O)C(=O)OC1(c2ccc(C(F)(F)F)cn2)CCC1` [Example 5, 3-((1-(5-(trifluoromethyl)pyridin-2-yl)cyclobutoxy)carbonyl)but-3-enoic acid], the IC50 is over 31.6 µM in series [1] (Homo sapiens) and 9 µM in series [4] (setting [6]). Besides, the CIint in series [2] (Mouse hepatocytes) and in series [3] (Human hepatocytes) was under 3 μL min^−1 10^−6 cells each time. The half-life at 10 μM in series [2] and in series [3] was over 7.67 h in each case.
For `C=C(CC(=O)O)C(=O)OC` [1-monomethyl itaconate, reference compound], the IC50 in series [1] and in series [4] (differentiated THP-1 cells) was over 100 µM in each case. For the same molecule, the EC50 – broadly, the concentration giving half of the maximal effect – in series [5] (U2OS PathHunter cells, 6 hours) turned out to be 30.1 µM. For the same molecule, the “NRF2 activation Emax, −GSH” value in series [5] (normalised to dimethyl fumarate high control) was found to be 44%.
